Measurements as given in ChEMBL document CHEMBL1201862, “PubChem BioAssay data set” (2004).
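Exposure lasted 48 hours, with cells grown in 96-well plates and compounds tested at five concentrations. GI50 = concentration required for 50% inhibition of growth.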 Activity calls are given as the source filed them. Cut-off read from the data, not from the text of the source: active = GI50 up to about 1.1 µM and inactive = higher.

Legend:
Test in all cases: growth of human tumour cells (NCI), 48 h
[1] = test system: SK-MEL-5
[2] = test system: BT-549
[3] = test system: Hs-578T
[4] = test system: KM12
[5] = test system: A549
[6] = test system: HOP-92
[7] = test system: NCI-H226
[8] = test system: DU-145
[9] = test system: SW-620
[10] = test system: OVCAR-5
[11] = test system: PC-3
[12] = test system: SK-MEL-2
[13] = test system: SR
[14] = test system: MOLT-4
[15] = test system: HCT-15
[16] = test system: IGROV-1
[17] = test system: NCI-H460
[18] = test system: U-251
[19] = test system: MDA-MB-435
[20] = test system: OVCAR-3
[21] = test system: K562
[22] = test system: TK-10
[23] = test system: UO-31
[24] = test system: HCC 2998
[25] = test system: OVCAR-4
[26] = test system: RXF 393
[27] = test system: HL-60
[28] = test system: OVCAR-8
[29] = test system: SNB-19
[30] = test system: SNB-75
[31] = test system: HT-29
[32] = test system: MDA-N
[33] = test system: MCF7
[34] = test system: 786-0
[35] = test system: UACC-62
[36] = test system: SK-MEL-28
[37] = test system: RPMI-8226
[38] = test system: NCI/ADR-RES
[39] = test system: M14
[40] = test system: SK-OV-3
[41] = test system: COLO 205
[42] = test system: NCI-H522
[43] = test system: SF-295
[44] = test system: ACHN
[45] = test system: A498
[46] = test system: EKVX
[47] = test system: HCT-116
[48] = test system: T47D
[49] = test system: SF-539
[50] = test system: MDA-MB-231
[51] = test system: UACC-257
[52] = test system: Malme-3M
[53] = test system: CAKI-1
[54] = test system: NCI-H23
[55] = test system: LOX IMVI
[56] = test system: CCRF-CEM
[57] = test system: SF-268
[58] = test system: HOP-62
[59] = test system: SN12C

Measured: GI50

COC(=O)C1CN=CN1CCc1ccccc1 (centres undefined)
inactive: [1] > 100 µM | [2] > 100 µM | [3] > 100 µM | [4] > 100 µM | [5] > 100 µM | [6] > 100 µM | [7] > 100 µM | [8] > 100 µM | [9] > 100 µM | [10] > 100 µM | [11] > 100 µM | [12] > 100 µM | [13] > 100 µM | [14] > 100 µM | [16] > 100 µM | [17] > 100 µM | [18] > 100 µM | [19] > 100 µM | [20] > 100 µM | [21] > 100 µM | [22] > 100 µM | [23] > 100 µM | [24] > 100 µM | [25] > 100 µM | [26] > 100 µM | [27] > 100 µM | [28] > 100 µM | [29] > 100 µM | [30] 15.5 µM | [31] > 100 µM | [32] > 100 µM | [33] > 100 µM | [34] > 100 µM | [35] > 100 µM | [36] > 100 µM | [37] > 100 µM | [38] > 100 µM | [39] > 100 µM | [40] > 100 µM | [41] > 100 µM | [42] > 100 µM | [43] > 100 µM | [44] > 100 µM | [45] > 100 µM | [46] > 100 µM | [47] > 100 µM | [48] > 100 µM | [49] > 100 µM | [50] > 100 µM | [51] > 100 µM | [52] > 100 µM | [53] > 100 µM | [54] > 100 µM | [55] > 100 µM | [56] > 100 µM
> 100 µM: [15]

COc1cc2c(/C=C3/C(=O)N(C)c4ccccc43)c(Cl)[nH]c2cc1C
0.13 µM: [15]
inactive: [6] 1.81 µM | [23] 2.28 µM | [36] 8.38 µM | [45] 3.19 µM | [48] 1.46 µM
active: [1] 0.185 µM | [2] 0.321 µM | [3] 0.226 µM | [4] 0.132 µM | [5] 0.361 µM | [7] 0.449 µM | [8] 0.246 µM | [9] 0.33 µM | [10] 0.581 µM | [11] 0.29 µM | [12] 0.325 µM | [13] 0.274 µM | [14] 0.282 µM | [16] 0.167 µM | [17] 0.295 µM | [18] 0.117 µM | [19] 0.0277 µM | [20] 0.116 µM | [21] 0.0966 µM | [22] 0.284 µM | [24] 0.101 µM | [25] 0.0906 µM | [26] 0.746 µM | [57] 0.207 µM | [27] 0.069 µM | [28] 0.324 µM | [29] 0.253 µM | [30] 0.321 µM | [31] 0.328 µM | [32] 0.0352 µM | [33] 0.0895 µM | [34] 0.3 µM | [35] 0.179 µM | [37] 0.249 µM | [38] 0.17 µM | [39] 0.195 µM | [40] 0.184 µM | [41] 0.216 µM | [42] 0.183 µM | [43] 0.0964 µM | [44] 0.51 µM | [58] 0.286 µM | [59] 0.471 µM | [46] 0.641 µM | [47] 0.233 µM | [49] 0.0244 µM | [50] 0.36 µM | [51] 0.169 µM | [53] 0.509 µM | [54] 0.203 µM | [55] 0.3 µM | [56] 0.303 µM
